Source: PubChem BioAssay AID256 (DTP/NCI, 2004)
Values joined by “and” are separate entries in the source; they are usually repeats but may differ in a detail not shown here. Identical values can stand only once. Inconclusive results and toxic doses are left out.

System: CD2F1 mice, L1210 leukemia ip, survival T/C
Assay: NCI In Vivo Anticancer Drug Screen. Data for tumor model L1210 Leukemia (intraperitoneal) in CD2F1 (CDF1) mice
Conditions: higher = longer survival
Method in brief: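 Transplantable tumor in mice; compound-treated vs vehicle-treated groups. Read-out = treated/control ratio of the measured endpoint.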

[1] = endpoint: median survival time, dose: 12.5 mg/kg/injection, schedule: Q01DX009 (ip), vehicle: saline
[2] = endpoint: median survival time, dose: 25.0 mg/kg/injection, schedule: Q01DX009 (ip), vehicle: saline
[3] = endpoint: median survival time, dose: 50.0 mg/kg/injection, schedule: Q01DX009 (ip), vehicle: saline
[4] = endpoint: median survival time, dose: 100.0 mg/kg/injection, schedule: Q01DX009 (ip), vehicle: saline
[5] = endpoint: mean survival time, dose: 100.0 mg/kg/injection, schedule: Q01DX009 (ip), vehicle: saline with Tween-80
[6] = endpoint: mean survival time, dose: 100.0 mg/kg/injection, schedule: Q04DX003 (ip), vehicle: saline with Tween-80
[7] = endpoint: mean survival time, dose: 200.0 mg/kg/injection, schedule: Q04DX003 (ip), vehicle: saline with Tween-80
[8] = endpoint: mean survival time, dose: 400.0 mg/kg/injection, schedule: Q04DX003 (ip), vehicle: saline with Tween-80

Q: O=C1C=CC(n2cc(F)c(=O)[nH]c2=O)O1 (stereo not drawn) was tested. Which T/C (endpoint: median survival time, dose: 6.25 mg/kg/injection, schedule: Q01DX009 (ip), vehicle: saline with Tween-80) did it give?
A: 122 % of control

Q: What about the T/C (endpoint: median survival time, dose: 6.25 mg/kg/injection, schedule: Q01DX009 (ip), vehicle: saline) of the same compound?
A: 113 % of control and 115 % of control

Q: And the T/C [1]?
A: 121 % of control

Q: And the T/C [2]?
A: 122 % of control

Q: And the T/C [3]?
A: 150 % of control and 162 % of control

Q: And the T/C (endpoint: median survival time, dose: 100.0 mg/kg/injection, schedule: Q01DX009 (ip), vehicle: saline with Tween-80)?
A: 91 % of control

Q: And the T/C [4]?
A: 96 % of control and 108 % of control

Q: How did the T/C (endpoint: mean survival time, dose: 12.0 mg/kg/injection, schedule: Q04DX002 (ip), vehicle: saline) turn out when CN(C)c1nc(N)nc(-c2ccncc2)n1 was run?
A: 100 % of control

Q: What about the T/C (endpoint: mean survival time, dose: 24.0 mg/kg/injection, schedule: Q04DX002 (ip), vehicle: saline) of the same compound?
A: 96 % of control

Q: And the T/C (endpoint: mean survival time, dose: 48.0 mg/kg/injection, schedule: Q04DX002 (ip), vehicle: saline)?
A: 92 % of control

Q: For O=C(O)C[N-]CC[N-]CC(=O)O.[Cl][Pt+2][Cl], which T/C (endpoint: mean survival time, dose: 6.25 mg/kg/injection, schedule: Q04DX003 (ip), vehicle: other) is on record?
A: 101 % of control

Q: What about the T/C (endpoint: mean survival time, dose: 12.5 mg/kg/injection, schedule: Q04DX003 (ip), vehicle: other) of the same compound?
A: 100 % of control

Q: And the T/C (endpoint: mean survival time, dose: 25.0 mg/kg/injection, schedule: Q04DX003 (ip), vehicle: other)?
A: 104 % of control

Q: What about the T/C (endpoint: mean survival time, dose: 50.0 mg/kg/injection, schedule: Q04DX003 (ip), vehicle: other) of the same compound?
A: 109 % of control

Q: For COc1ccccc1C=NC(C)(C)CO, which T/C (endpoint: mean survival time, dose: 75.0 mg/kg/injection, schedule: Q01DX001 (ip), vehicle: other) is on record?
A: 102 % of control

Q: What about the T/C (endpoint: mean survival time, dose: 150.0 mg/kg/injection, schedule: Q01DX001 (ip), vehicle: other) of the same compound?
A: 97 % of control

Q: And the T/C (endpoint: mean survival time, dose: 300.0 mg/kg/injection, schedule: Q01DX001 (ip), vehicle: other)?
A: 97 % of control

Q: Which results are given for N#Cc1nc(C#N)c(Sc2ccccc2)c(Sc2ccccc2)c1Sc1ccccc1?
A: T/C (endpoint: mean survival time, dose: 3.12 mg/kg/injection, schedule: Q01DX009 (ip), vehicle: saline with Tween-80): 103 % of control and 104 % of control; T/C (endpoint: mean survival time, dose: 6.25 mg/kg/injection, schedule: Q01DX009 (ip), vehicle: saline with Tween-80): 94 % of control and 100 % of control; T/C (endpoint: mean survival time, dose: 12.5 mg/kg/injection, schedule: Q01DX009 (ip), vehicle: saline with Tween-80): 94 % of control; T/C (endpoint: mean survival time, dose: 25.0 mg/kg/injection, schedule: Q01DX009 (ip), vehicle: saline with Tween-80): 96 % of control and 102 % of control; T/C (endpoint: mean survival time, dose: 50.0 mg/kg/injection, schedule: Q01DX009 (ip), vehicle: saline with Tween-80): 90 % of control and 102 % of control; T/C [5]: 96 % of control and 103 % of control

Q: How did the T/C (endpoint: mean survival time, dose: 12.5 mg/kg/injection, schedule: Q04DX003 (ip), vehicle: saline with Tween-80) turn out when Fc1c(F)c(F)[c]([Sn]([c]2ccccc2)([c]2ccccc2)[c]2ccccc2)c(F)c1F was run?
A: 88 % of control

Q: And the T/C (endpoint: mean survival time, dose: 25.0 mg/kg/injection, schedule: Q04DX003 (ip), vehicle: saline with Tween-80)?
A: 88 % of control

Q: For Clc1ccc([PH+](c2ccc(Cl)cc2)c2ccc(Cl)cc2)cc1.Clc1ccc([PH+](c2ccc(Cl)cc2)c2ccc(Cl)cc2)cc1.[Cl][Hg][Cl], which T/C (endpoint: mean survival time, dose: 12.5 mg/kg/injection, schedule: Q01DX009 (ip), vehicle: Klucel (hydroxypropylcellulose) (HPC)) is on record?
A: 96 % of control

Q: And the T/C (endpoint: mean survival time, dose: 50.0 mg/kg/injection, schedule: Q01DX009 (ip), vehicle: Klucel (hydroxypropylcellulose) (HPC))?
A: 104 % of control

Q: Which T/C [6] does the source give for Cc1ccc(NC(=O)c2ccccc2Cl)cc1C here?
A: 97 % of control

Q: What about the T/C [7] of the same compound?
A: 103 % of control

Q: What about the T/C [8] of the same compound?
A: 93 % of control

Q: Which results are given for CCc1cc(O)cc(C)c1Cl?
A: T/C [5]: 96 % of control; T/C [6]: 92 % of control; T/C (endpoint: mean survival time, dose: 200.0 mg/kg/injection, schedule: Q01DX009 (ip), vehicle: saline with Tween-80): 92 % of control; T/C [7]: 92 % of control; T/C [8]: 100 % of control

Q: COc1cc(C2=NCCc3cc4c(cc32)OCO4)cc(OC)c1OC was tested. Which T/C (endpoint: median survival time, dose: 6.25 mg/kg/injection, schedule: Q01DX009 (ip), vehicle: saline + alcohol) did it give?
A: 106 % of control

Q: And the T/C (endpoint: median survival time, dose: 12.5 mg/kg/injection, schedule: Q01DX009 (ip), vehicle: saline + alcohol)?
A: 105 % of control

Q: What about the T/C [1] of the same compound?
A: 97 % of control and 102 % of control

Q: What about the T/C (endpoint: median survival time, dose: 25.0 mg/kg/injection, schedule: Q01DX009 (ip), vehicle: saline + alcohol) of the same compound?
A: 107 % of control

Q: What about the T/C [2] of the same compound?
A: 93 % of control and 104 % of control

Q: What about the T/C (endpoint: median survival time, dose: 50.0 mg/kg/injection, schedule: Q01DX009 (ip), vehicle: saline + alcohol) of the same compound?
A: 106 % of control

Q: What about the T/C [3] of the same compound?
A: 105 % of control

Q: And the T/C (endpoint: median survival time, dose: 100.0 mg/kg/injection, schedule: Q01DX009 (ip), vehicle: saline + alcohol)?
A: 109 % of control

Q: What about the T/C [4] of the same compound?
A: 105 % of control

Q: Which results are given for C=CC(=C)CCC=C(C)C?
A: T/C (endpoint: mean survival time, dose: 50.0 mg/kg/injection, schedule: Q01DX009 (ip), vehicle: acetone): 96 % of control; T/C (endpoint: mean survival time, dose: 100.0 mg/kg/injection, schedule: Q01DX009 (ip), vehicle: acetone): 91 % of control; T/C (endpoint: mean survival time, dose: 200.0 mg/kg/injection, schedule: Q01DX009 (ip), vehicle: acetone): 96 % of control

Q: Which T/C (endpoint: median survival time, dose: 3.12 mg/kg/injection, schedule: Q04DX003 (ip), vehicle: saline) does the source give for [Cl][Pt+2][Cl].[NH-]C(C(=O)O)c1ccccc1.[NH-]C(C(=O)O)c1ccccc1 (stereo not drawn) here?
A: 103 % of control

Q: And the T/C (endpoint: median survival time, dose: 6.25 mg/kg/injection, schedule: Q04DX003 (ip), vehicle: saline)?
A: 103 % of control

Q: What about the T/C (endpoint: median survival time, dose: 12.5 mg/kg/injection, schedule: Q04DX003 (ip), vehicle: saline) of the same compound?
A: 100 % of control

Q: And the T/C (endpoint: median survival time, dose: 25.0 mg/kg/injection, schedule: Q04DX003 (ip), vehicle: saline)?
A: 107 % of control

Q: And the T/C (endpoint: median survival time, dose: 50.0 mg/kg/injection, schedule: Q04DX003 (ip), vehicle: saline)?
A: 101 % of control

Q: And the T/C (endpoint: median survival time, dose: 100.0 mg/kg/injection, schedule: Q04DX003 (ip), vehicle: saline)?
A: 123 % of control

Q: Which results are given for CC(/C=C/C1OC(=O)C=CC1C)=C\C(C)C/C=C/C(C)=C/C(C)C(=O)C(C)C(O)C(C)C/C(C)=C/C(=O)O (stereo not drawn)?
A: T/C (endpoint: median survival time, dose: 9.0 micrograms/kg/injection, schedule: Q01DX009 (ip), vehicle: saline + alcohol): 106 % of control; T/C (endpoint: median survival time, dose: 15.0 micrograms/kg/injection, schedule: Q01DX009 (ip), vehicle: saline + alcohol): 119 % of control; T/C (endpoint: median survival time, dose: 18.0 micrograms/kg/injection, schedule: Q01DX005 (ip), vehicle: alcohol): 110 % of control; T/C (endpoint: median survival time, dose: 18.0 micrograms/kg/injection, schedule: Q01DX005 (ip), vehicle: saline + alcohol): 106 % of control; T/C (endpoint: median survival time, dose: 25.0 micrograms/kg/injection, schedule: Q01DX009 (ip), vehicle: saline + alcohol): 117 % of control; T/C (endpoint: median survival time, dose: 30.0 micrograms/kg/injection, schedule: Q01DX005 (ip), vehicle: alcohol): 110 % of control; T/C (endpoint: median survival time, dose: 30.0 micrograms/kg/injection, schedule: Q01DX005 (ip), vehicle: saline + alcohol): 107 % of control; T/C (endpoint: median survival time, dose: 50.0 micrograms/kg/injection, schedule: Q01DX005 (ip), vehicle: alcohol): 115 % of control; T/C (endpoint: median survival time, dose: 50.0 micrograms/kg/injection, schedule: Q01DX005 (ip), vehicle: saline + alcohol): 108 % of control; T/C (endpoint: median survival time, dose: 83.33 micrograms/kg/injection, schedule: Q01DX005 (ip), vehicle: alcohol): 115 % of control; T/C (endpoint: median survival time, dose: 83.33 micrograms/kg/injection, schedule: Q01DX005 (ip), vehicle: saline + alcohol): 116 % of control; T/C (endpoint: median survival time, dose: 138.89 micrograms/kg/injection, schedule: Q01DX005 (ip), vehicle: alcohol): 122 % of control; T/C (endpoint: median survival time, dose: 138.89 micrograms/kg/injection, schedule: Q01DX005 (ip), vehicle: saline + alcohol): 111 % of control

Q: Which results are given for CCCCCC/C(C)=C(\C)c1cc(OC)cc(OC)c1?
A: T/C [6]: 96 % of control; T/C [7]: 100 % of control
